Test results published in US10265378B2, “Combination therapy for head and neck cancer” (Cornell University, priority 2014, dated 2019).

Legend:
[1] = Stability of CD1530 in drinking water by HPLC; type: physicochemical; conditions: room temperature, final DMSO 0.8%
From the text: FIG. 7. CD1530 is stable in the drinking water for at least 7 days at room temperature. CD1530 was first dissolved in 100% DMSO and subsequently diluted in the drinking water (the final concentration of DMSO was 0.8%). The same amounts of the freshly prepared CD1530 containing drinking water and the CD1530 containing water prepared 7 days earlier and stored at the room temperature were subjected to high-performance liquid chromatography (HPLC) analysis.
(§1) Drug treatments reduce tongue tumor development. All of the mice tolerated the 10 week 4-NQO treatment, and almost all of the mice survived the 15 week post 4-NQO treatment period (A). We determined that the CD1530 in the regular drinking water was stable for at least 7 days at room temperature by HPLC analysis (FIG. 7); thus, we decided to use drinking water as a delivery method because this method is effective and less laborious.

[2] = tested on: β-catenin; assay: Immunohistochemistry of tongue epithelium: β-catenin; type: in vivo, mouse; conditions: compared to the 4-NQO group; antibody staining
Procedure: (§2) Immunohistochemistry. Paraffin embedded tongue sections were stained with various antibodies (supporting information).
(§3) Immunohistochemistry. Paraffin-embedded sections (from two to four mice per group) were deparaffinized and rehydrated, and antigen retrieval was performed using an antigen unmasking solution (Vector Laboratories, H-3300). After quenching endogenous peroxidase with 3% H2O2, the tissue sections were blocked with the blocking reagent (from the M.O.M. kit from Vector Laboratories for 4-HNE) or 10% goat serum (Vector Laboratories). Then, tissue sections were incubated with a 4-HNE antibody (1:700; mouse monoclonal antibody; Abcam, ab48506), a β-catenin antibody (1:400; rabbit polyclonal antibody; Abcam, ab6302), or a MMP9 antibody (1:70; rabbit polyclonal antibody; Abcam, ab38898), respectively, overnight at 4° C. The sections were then incubated with secondary antibodies (1:200, anti-mouse IgG from the M.O.M kit for 4-1-INE; ready-to-use anti-rabbit IgG from the Invitrogen SuperPicture kit for β-catenin and MMP9). As a negative control, sections were stained without incubation with primary antibodies. The signals were visualized based on a peroxidase detection mechanism with 3,3-diaminobenzidine (DAB) used as the substrate. Four to five representative areas of each mouse tongue section from two to four mice per group were photographed and analyzed.

[3] = Mouse serum triglyceride level measurements; type: in vivo; conditions: treatment for 15 weeks; compared to the UNT group
Procedure: Mouse serum triglyceride level measurements. Blood samples from the mice were obtained from mouse tails. The analysis of serum triglyceride levels was carried out at the Laboratory of Comparative Pathology of the Memorial Sloan-Kettering Cancer Center. UNT (n=4); 4-NQO (n=3); 4N+B (n=4); 4N+C (n=3), and 4N+B+C (n=4).

[4] = tested on: IL-6; assay: Immunohistochemistry of tongue epithelium: IL-6; type: in vivo, mouse; conditions: compared to the 4-NQO group; antibody staining
From the text: (§4) The tongues were fixed, embedded in paraffin, and sectioned. Then the tissue sections were stained with various antibodies (magnification, 200×). Four to five representative areas of each tongue section from two to four mice/group were photographed and analyzed (FIGS. 12A and 12B). Interleukin-6 (IL-6) is a multifunctional cytokine that is involved in the regulation of immune responses and cellular functions. IL-6 levels are enhanced in human oral squamous cell carcinoma and IL-6 is considered a bad prognostic factor in this cancer (Expert Opin Ther Targets. 2013 January; 17(1):53-9). IL-6 protein was detected primarily in the basal layer of tongue epithelium in the UNT samples (FIG. 12A, arrows), but in the 4-NQO treated samples we observed both an increase in the protein level and an expansion of IL-6 signal to the suprabasal layers of the tongue epithelium (FIG. 12A).

[5] = tested on: tongue lesions (4-NQO induced oral cavity carcinogenesis); assay: 4-NQO mouse oral cavity carcinogenesis model: gross tongue lesion number and severity
[6] = tested on: GO categories in mouse tongue; assay: Gene ontology (GO) analysis of RNA-Seq data; type: in vivo; conditions: compared to the 4-NQO group
Procedure: Gene ontology (GO) analysis. Gene ontology (GO) analysis (p-value cutoff: 0.00001), using the ConsensusPathDB online tool, was conducted on the Gene Ontology level 3 of the “Biological Process” domain that has predefined, functional sets for enrichment analysis with default parameter settings.

[7] = tested on: 4-hydroxynonenal (4-HNE), marker of oxidative stress; assay: Immunohistochemistry of tongue epithelium: 4-HNE; type: in vivo, mouse; conditions: compared to the 4-NQO group; antibody staining
Procedure: as §2, §3

[8] = tested on: mouse tongue mRNA transcriptome; assay: RNA-Seq analysis of the mRNA transcriptome of mouse tongues; type: in vivo
Procedure: RNA-Seq analysis of the mRNA transcriptome. One part of each mouse tongue (same position on each mouse tongue) was snap frozen in liquid N2 and stored at −70° C. until total RNA extraction. Total tissue RNA was extracted and subjected to Next-Generation Sequencing (RNA-Seq) at the Genomics Resources Core Facility, Weill Cornell Medical College. Bioinfomatics analyses were performed using the Tophat and Cufflink software. (supporting information).
RNA-Seq analysis of mRNA transcriptome. […] The GEO Accession number is GSE54246; embargoed until publication.

[9] = tested on: MCT4; assay: Immunohistochemistry of tongue epithelium: MCT4; type: in vivo, mouse; conditions: compared to the 4-NQO group; antibody staining
From the text: as §4

[10] = Consumption of drug containing drinking water and diet; type: in vivo, mouse; conditions: 4-NQO treated mice, 15 week post 4-NQO treatment
From the text: as §1

[11] = compared to the 4-NQO group, p<0.05

## O=C(O)c1ccc(-c2ccc3cc(O)c(C45CC6CC(CC(C6)C4)C5)cc3c2)cc1 [CD1530]
[1]
  stable in the drinking water: at least 7 days
[2]
  β-catenin protein levels in the tongue epithelium: lower β-catenin protein levels
[3]
  serum triglyceride levels: did not change serum triglyceride levels significantly
[4]
  IL-6 protein levels in the tongue epithelium: lower IL-6 protein levels
[5]; C57BL/6 female mice, 4-NQO 10 weeks, then drug in 15 week post 4-NQO period, bexarotene 300 mg/kg diet, CD1530 […]100 ml drinking water, 4-NQO group 5.9±3.2
  number of tongue lesions (gross tongue lesion multiplicity): 3.9±1.7
[5]; same model, 4-NQO group 2.8±0.8
  average severity of tongue lesions (grade 0-4): 1.6±0.8
[6]
  GO categories related to cell cycle, DNA replication, and mitosis: most under-expressed
  over-represented GO categories: over-representation of many GO categories, with some of them involved in lipid metabolism
[7]
  4-HNE levels in tongue samples: lower
[8]; compared to the 4-NQO group
  transcript levels of DNA replication genes (MCM 2-7 and 10, DNA2, LIG1, ORC1, POLA1, PRIM2): significantly lower transcript levels of the majority of these genes
[8]; [11]
  number of genes with decreased transcript levels: 531
  number of genes with increased transcript levels: 987
  number of genes with significantly different transcript levels: 1518
[8]; greater than in other groups, RARγ target gene
  Cyp26a1 mRNA level: about 20 fold
[9]
  MCT4 protein levels in the tongue epithelium: lower MCT4 protein levels
[10]
  consumption of drinking water containing drug vs regular drinking water: comparable
